Organism: Rattus norvegicus
Experiment: DrugMatrix - Regimen: Daily Repeat
Assay type: toxicity, organism-based, Sprague-Dawley
Parameters: regimen Daily Repeat, gender Male, age 6-8 weeks
Conditions: in vivo, po, route oral GAVAGE, vehicle .5 % CMC; for ALANINE AMINOTRANSFERASE / ALBUMIN / ALKALINE PHOSPHATASE / ASPARTATE AMINOTRANSFERASE / BLOOD UREA NITROGEN / CARBON DIOXIDE / CHLORIDE / CHOLESTEROL / CREATINE PHOSPHOKINASE / CREATININE / GLUCOSE / LACTATE DEHYDROGENASE / LIPASE / PHOSPHORUS / POTASSIUM / SODIUM / TOTAL BILIRUBIN / TOTAL PROTEIN / URIC ACID: tissue Plasma; for ABSOLUTE BASOPHIL / ABSOLUTE EOSINOPHIL / ABSOLUTE LYMPHOCYTE / ABSOLUTE MONOCYTE / ABSOLUTE SEGMENTED NEUTROPHIL / BASOPHIL / EOSINOPHIL / ERYTHROCYTE COUNT / HEMATOCRIT / HEMOGLOBIN / LEUKOCYTE COUNT / LYMPHOCYTE / MEAN CORPUSCULAR HEMOGLOBIN / MEAN CORPUSCULAR HEMOGLOBIN CONCENTRATION / MEAN CORPUSCULAR VOLUME / MONOCYTE / NEUTROPHIL / NUCLEATED RED BLOOD CELLS / PLATELET COUNT: tissue Blood
[1] = 88 mg/kg, 72 h, dose level Low, time 3 day
[2] = 88 mg/kg, 120 h, dose level Low, time 5 day
[3] = 2000 mg/kg, 72 h, dose level High, time 3 day

Q: Which “ALANINE AMINOTRANSFERASE” value [1] does the source give for `CC(C)[C@H](N)C(=O)OCCOCn1cnc2c(=O)[nH]c(N)nc21` [VALACYCLOVIR] here?
A: 55 u/L

Q: What about the ALBUMIN [1] of the same compound?
A: 4.33 G/DL

Q: What about the “ALKALINE PHOSPHATASE” value [1] of the same compound?
A: 415.33 u/L

Q: And the “ASPARTATE AMINOTRANSFERASE” value [1]?
A: 100.67 u/L

Q: And the “BLOOD UREA NITROGEN” value [1]?
A: 14.67 mg/dL

Q: What about the “CARBON DIOXIDE” value [1] of the same compound?
A: 27 mmol/L

Q: What about the CHLORIDE [1] of the same compound?
A: 101 MEQ/L

Q: What about the CHOLESTEROL [1] of the same compound?
A: 77 mg/dL

Q: And the “CREATINE PHOSPHOKINASE” value [1]?
A: 717.67 u/L

Q: And the CREATININE [1]?
A: 0.2 mg/dL

Q: What about the GLUCOSE [1] of the same compound?
A: 147.33 mg/dL

Q: What about the “LACTATE DEHYDROGENASE” value [1] of the same compound?
A: 667.67 u/L

Q: What about the LIPASE [1] of the same compound?
A: 10.67 u/L

Q: What about the PHOSPHORUS [1] of the same compound?
A: 12.5 mg/dL

Q: What about the POTASSIUM [1] of the same compound?
A: 6.48 MEQ/L

Q: And the SODIUM [1]?
A: 144.3 MEQ/L

Q: What about the “TOTAL BILIRUBIN” value [1] of the same compound?
A: 0.2 mg/dL

Q: What about the “TOTAL PROTEIN” value [1] of the same compound?
A: 6.23 G/DL

Q: And the “URIC ACID” value [1]?
A: 1.4 mg/dL

Q: And the “ABSOLUTE BASOPHIL” value [2]?
A: 0 CELLS/uL

Q: What about the “ABSOLUTE EOSINOPHIL” value [2] of the same compound?
A: 94 CELLS/uL

Q: What about the “ABSOLUTE LYMPHOCYTE” value [2] of the same compound?
A: 9072.33 CELLS/uL

Q: What about the “ABSOLUTE MONOCYTE” value [2] of the same compound?
A: 117.33 CELLS/uL

Q: What about the “ABSOLUTE SEGMENTED NEUTROPHIL” value [2] of the same compound?
A: 1283 CELLS/uL

Q: And the BASOPHIL [2]?
A: 0%

Q: And the EOSINOPHIL [2]?
A: 0.67%

Q: What about the “ERYTHROCYTE COUNT” value [2] of the same compound?
A: 5.42 x10E6/uL

Q: And the HEMATOCRIT [2]?
A: 33.93%

Q: And the HEMOGLOBIN [2]?
A: 13.17 G/DL

Q: And the “LEUKOCYTE COUNT” value [2]?
A: 10.57 x10E3/uL

Q: What about the LYMPHOCYTE [2] of the same compound?
A: 86.33%

Q: And the “MEAN CORPUSCULAR HEMOGLOBIN” value [2]?
A: 24.3 pg

Q: What about the “MEAN CORPUSCULAR HEMOGLOBIN CONCENTRATION” value [2] of the same compound?
A: 38.83 G/DL

Q: What about the “MEAN CORPUSCULAR VOLUME” value [2] of the same compound?
A: 62.57 fL

Q: And the MONOCYTE [2]?
A: 1.33%

Q: And the NEUTROPHIL [2]?
A: 11.67%

Q: And the “NUCLEATED RED BLOOD CELLS” value [2]?
A: 0 /100WBC

Q: What about the “PLATELET COUNT” value [2] of the same compound?
A: 1317.67 x10E3/uL

Q: And the “ALANINE AMINOTRANSFERASE” value [2]?
A: 58.33 u/L

Q: And the ALBUMIN [2]?
A: 4.43 G/DL

Q: What about the “ALKALINE PHOSPHATASE” value [2] of the same compound?
A: 393 u/L

Q: And the “ASPARTATE AMINOTRANSFERASE” value [2]?
A: 91 u/L

Q: And the “BLOOD UREA NITROGEN” value [2]?
A: 18 mg/dL

Q: And the “CARBON DIOXIDE” value [2]?
A: 28.33 mmol/L

Q: And the CHLORIDE [2]?
A: 103.33 MEQ/L

Q: What about the CHOLESTEROL [2] of the same compound?
A: 75.33 mg/dL

Q: And the “CREATINE PHOSPHOKINASE” value [2]?
A: 215.67 u/L

Q: What about the CREATININE [2] of the same compound?
A: 0.21 mg/dL

Q: What about the GLUCOSE [2] of the same compound?
A: 137.33 mg/dL

Q: And the “LACTATE DEHYDROGENASE” value [2]?
A: 175.67 u/L

Q: What about the LIPASE [2] of the same compound?
A: 9.33 u/L

Q: And the PHOSPHORUS [2]?
A: 13.03 mg/dL

Q: And the POTASSIUM [2]?
A: 7.1 MEQ/L

Q: What about the SODIUM [2] of the same compound?
A: 147.83 MEQ/L

Q: What about the “TOTAL BILIRUBIN” value [2] of the same compound?
A: 0.23 mg/dL

Q: What about the “TOTAL PROTEIN” value [2] of the same compound?
A: 6.33 G/DL

Q: What about the “URIC ACID” value [2] of the same compound?
A: 1.57 mg/dL

Q: And the “ABSOLUTE BASOPHIL” value [3]?
A: 0 CELLS/uL

Q: And the “ABSOLUTE EOSINOPHIL” value [3]?
A: 83 CELLS/uL

Q: And the “ABSOLUTE LYMPHOCYTE” value [3]?
A: 8794.67 CELLS/uL

Q: And the “ABSOLUTE MONOCYTE” value [3]?
A: 95 CELLS/uL

Q: And the “ABSOLUTE SEGMENTED NEUTROPHIL” value [3]?
A: 994 CELLS/uL

Q: What about the BASOPHIL [3] of the same compound?
A: 0%

Q: What about the EOSINOPHIL [3] of the same compound?
A: 1%

Q: And the “ERYTHROCYTE COUNT” value [3]?
A: 4.99 x10E6/uL

Q: What about the HEMATOCRIT [3] of the same compound?
A: 31.53%

Q: And the HEMOGLOBIN [3]?
A: 12.63 G/DL

Q: What about the “LEUKOCYTE COUNT” value [3] of the same compound?
A: 9.97 x10E3/uL

Q: And the LYMPHOCYTE [3]?
A: 88%

Q: And the “MEAN CORPUSCULAR HEMOGLOBIN” value [3]?
A: 25.3 pg

Q: And the “MEAN CORPUSCULAR HEMOGLOBIN CONCENTRATION” value [3]?
A: 40.1 G/DL

Q: And the “MEAN CORPUSCULAR VOLUME” value [3]?
A: 63.07 fL

Q: What about the MONOCYTE [3] of the same compound?
A: 1%

Q: And the NEUTROPHIL [3]?
A: 10%

Q: What about the “NUCLEATED RED BLOOD CELLS” value [3] of the same compound?
A: 0 /100WBC

Q: What about the “PLATELET COUNT” value [3] of the same compound?
A: 1175 x10E3/uL

Q: What about the “ALANINE AMINOTRANSFERASE” value [3] of the same compound?
A: 43.33 u/L

Q: And the ALBUMIN [3]?
A: 4 G/DL

Q: What about the “ALKALINE PHOSPHATASE” value [3] of the same compound?
A: 329.67 u/L

Q: What about the “ASPARTATE AMINOTRANSFERASE” value [3] of the same compound?
A: 81.67 u/L

Q: What about the “BLOOD UREA NITROGEN” value [3] of the same compound?
A: 79.33 mg/dL

Q: And the “CARBON DIOXIDE” value [3]?
A: 22.67 mmol/L

Q: And the CHLORIDE [3]?
A: 101 MEQ/L

Q: And the CHOLESTEROL [3]?
A: 118.67 mg/dL

Q: What about the “CREATINE PHOSPHOKINASE” value [3] of the same compound?
A: 274.33 u/L

Q: And the CREATININE [3]?
A: 1.22 mg/dL

Q: And the GLUCOSE [3]?
A: 158.33 mg/dL

Q: What about the “LACTATE DEHYDROGENASE” value [3] of the same compound?
A: 182 u/L

Q: And the LIPASE [3]?
A: 10.67 u/L

Q: What about the PHOSPHORUS [3] of the same compound?
A: 10.07 mg/dL

Q: And the POTASSIUM [3]?
A: 5.9 MEQ/L

Q: And the SODIUM [3]?
A: 143.87 MEQ/L

Q: What about the “TOTAL BILIRUBIN” value [3] of the same compound?
A: 0.23 mg/dL

Q: And the “TOTAL PROTEIN” value [3]?
A: 6.3 G/DL

Q: And the “URIC ACID” value [3]?
A: 1.2 mg/dL

From ChEMBL document CHEMBL3885881, “DrugMatrix”
